In patent publication US6087355A, “Cephalosporin antibiotics” (Microcide Pharmaceuticals, Inc., priority 1996, dated 2000):
Values after ≈ are worked out from the molar mass of the structure shown. Where a name gives a salt, the structure may show the parent alone.

Key:
E. coli ATCC 25992 = experiment: In vitro MIC, agar dilution; assay type: cell-based; settings: Escherichia coli, ATCC25992, read-out: minimum inhibitory concentration (MIC)
Procedure, shortened: (§1)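 Agar dilution, Mueller-Hinton; drug 128 → ≤0.25 μg/mL two-fold, duplicates. Inoculum ~10^4 cfu/spot (log phase). 35-36 °C, 16-20 h. MIC = lowest conc. with no growth.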

E. faecalis ATCC 29212 = experiment: In vitro MIC, agar dilution; assay type: cell-based; settings: Enterococcus faecalis, ATCC29212, read-out: minimum inhibitory concentration (MIC)
Procedure, shortened: as §1

E. faecalis VanB(Van^R) = experiment: In vitro MIC, agar dilution; assay type: cell-based; settings: Enterococcus faecalis, read-out: minimum inhibitory concentration (MIC)
Procedure, shortened: as §1

E. faecium A491(Amp^R) = experiment: In vitro MIC, agar dilution; assay type: cell-based; settings: Enterococcus faecium, read-out: minimum inhibitory concentration (MIC)
Procedure, shortened: as §1

E. faecium ATCC 35667 = experiment: In vitro MIC, agar dilution; assay type: cell-based; settings: Enterococcus faecium, ATCC35667, read-out: minimum inhibitory concentration (MIC)
Procedure, shortened: as §1

E. faecium VanA(Van^R) = experiment: In vitro MIC, agar dilution; assay type: cell-based; settings: Enterococcus faecium, read-out: minimum inhibitory concentration (MIC)
Procedure, shortened: as §1

P. aeruginosa ATCC 27853 = experiment: In vitro MIC, agar dilution; assay type: cell-based; settings: Pseudomonas aeruginosa, ATCC27853, read-out: minimum inhibitory concentration (MIC)
Procedure, shortened: as §1

[1] = test system: S. aureus 76(Meth^R)(lac^+); experiment: In vitro MIC, agar dilution; assay type: cell-based; settings: Staphylococcus aureus, read-out: minimum inhibitory concentration (MIC)
Procedure, shortened: as §1

[2] = test system: S. aureus ATCC 13709(Meth^S); experiment: In vitro MIC, agar dilution; assay type: cell-based; settings: Staphylococcus aureus, ATCC13709, S. aureus ATCC 13709(Meth^S); read-out: minimum inhibitory concentration (MIC)
Procedure, shortened: as §1

S. aureus ATCC 29213 = experiment: In vitro MIC, agar dilution; assay type: cell-based; settings: Staphylococcus aureus, ATCC29213, read-out: minimum inhibitory concentration (MIC)
Procedure, shortened: as §1

[3] = test system: S. aureus ATCC 33593(Meth^R); experiment: In vitro MIC, agar dilution; assay type: cell-based; settings: Staphylococcus aureus, ATCC33593, read-out: minimum inhibitory concentration (MIC)
Procedure, shortened: as §1

[4] = test system: S. aureus PC1(Meth^S)(lac^+); experiment: In vitro MIC, agar dilution; assay type: cell-based; settings: Staphylococcus aureus, read-out: minimum inhibitory concentration (MIC)
Procedure, shortened: as §1

[5] = test system: S. aureus Spain #356(Meth^R); experiment: In vitro MIC, agar dilution; assay type: cell-based; settings: Staphylococcus aureus, read-out: minimum inhibitory concentration (MIC)
Procedure, shortened: as §1

[6] = test system: S. haemolyticus 05(Meth^R); experiment: In vitro MIC, agar dilution; assay type: cell-based; settings: Staphylococcus haemolyticus, read-out: minimum inhibitory concentration (MIC)
Procedure, shortened: as §1

[7] = test system: S. aureus Col(Meth^R)(lac^-); experiment: In vitro MIC, agar dilution; assay type: cell-based; settings: Staphylococcus aureus, read-out: minimum inhibitory concentration (MIC)
Procedure, shortened: (§2)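 Two-fold dilutions (128 to ≤0.25 μg/mL, in duplicate) were poured into Mueller-Hinton agar. Log-phase broth cultures were spot-inoculated at about 10^4 cfu per spot and incubated 35-36°C for 16-20 hours; the MIC was the lowest concentration inhibiting growth. Col is a high-level PBP2a producer; Col 8A is its isogenic PBP2a-lacking partner.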

[8] = test system: S. aureus strain ATCC 13709 (methicillin-susceptible); experiment: Murine model for lethal bacteremic peritonitis; assay type: in vivo, female Swiss-Webster mice; settings: Staphylococcus aureus, ATCC13709, SC, 72 h; for responders at 1.25 mg/kg: read-out: Survivors (converted); for ED50: two equal doses, IP challenge, read-out: ED50
Procedure, shortened: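 Female Swiss-Webster mice were challenged IP with an LD100 inoculum in 7% hog gastric mucin, then given test drug subcutaneously in twofold increments (0.01–512 mg/kg) as two equal doses at challenge and 2 h later, 10 mice per group. Survival was scored at 72 h; PD50 (total mg/kg) was derived by probit.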

[9] = test system: S. aureus Col8A(Meth^S)(lac^-); experiment: In vitro MIC, agar dilution; assay type: cell-based; settings: in words
Procedure, shortened: as §2

NCCSCc1cnccc1SC1=C(C(=O)O)N2C(=O)[C@@H](NC(=O)/C(=N\O)c3nc(N)sc3Cl)[C@H]2SC1 [Cmpd 16, (7R)-7-[(Z)-2-(2-amino-5-chlorothiazol-4-yl)-2-(hydroxyimino)acetamido]-3-(3-aminoethylthiomethylpyrid-4-ylthio)-3-cephem-4-carboxylate, trifluoroacetic acid salt]
MIC (E. coli ATCC 25992): 8 mg/L
MIC (E. faecalis ATCC 29212): ≤ 0.06 mg/L
MIC (E. faecalis VanB(Van^R)): 0.13 mg/L
MIC (E. faecium A491(Amp^R)): 8 mg/L
MIC (E. faecium ATCC 35667): 0.5 mg/L
MIC (E. faecium VanA(Van^R)): 0.25 mg/L
MIC (P. aeruginosa ATCC 27853): > 32 mg/L
MIC [1]: 1 mg/L
MIC [2]: 0.13 mg/L
MIC (S. aureus ATCC 29213): 0.25 mg/L
MIC [3]: 1 mg/L
MIC [4]: 0.25 mg/L
MIC [5]: 1 mg/L
MIC [6]: 2 mg/L
MIC [7]: 0.5 mg/L
responders at 0.156 mg/kg ([8]; Dose 0.156 mg/kg, read-out: Survivors): 20%
responders at 0.3125 mg/kg ([8]; read-out: Survivors): 10%
responders at 0.625 mg/kg ([8]; read-out: Survivors): 30%
responders at 1.25 mg/kg [8]: 55.6%
responders at 2.5 mg/kg ([8]; read-out: Survivors): 80%
ED50 [8]: 1 mg/kg

Nc1nc(/C(=N/O)C(=O)N[C@@H]2C(=O)N3C(C(=O)O)=C(Sc4ccncc4CSCC(N)CO)CS[C@H]23)c(Cl)s1 (stereo partly drawn) [Cmpd 56, (7R)-7-[(Z)-2-(2-amino-5-chlorothiazol-4-yl)-2-(hydroxyimino)acetamido]-3-[3-(2RS-2-amino-3-hydroxyprop-1-ylthiomethyl)pyrid-4-ylthio]-3-cephem-4-carboxylate, trifluoroacetic acid salt]
MIC (E. coli ATCC 25992): 8 mg/L
MIC (E. faecalis ATCC 29212): 0.13 mg/L
MIC (E. faecalis VanB(Van^R)): 2 mg/L
MIC (E. faecium A491(Amp^R)): 8 mg/L
MIC (E. faecium ATCC 35667): 1 mg/L
MIC (E. faecium VanA(Van^R)): 1 mg/L
MIC (P. aeruginosa ATCC 27853): > 32 mg/L
MIC [1]: 2 mg/L
MIC [2]: 0.25 mg/L
MIC (S. aureus ATCC 29213): 0.5 mg/L
MIC [3]: 2 mg/L
MIC [4]: 0.5 mg/L
MIC [5]: 2 mg/L
MIC [6]: 4 mg/L
MIC [7]: 2 mg/L
responders at 0.3125 mg/kg ([8]; read-out: Survivors): 20%
responders at 0.625 mg/kg ([8]; read-out: Survivors): 30%
responders at 1.25 mg/kg [8]: 30%
responders at 2.5 mg/kg ([8]; read-out: Survivors): 80%
responders at 5 mg/kg ([8]; read-out: Survivors): 80%
ED50 [8]: 1.23 mg/kg

CO/N=C(\C(=O)N[C@@H]1C(=O)N2C(C(=O)O)=C(COC(C)=O)CS[C@H]12)c1csc(N)n1 [Cefotaxime, cefotaxime, reference compound]
responsiveness of S. aureus Col 8A strain [9]: highly responsive

NC(=O)CSCc1cnccc1SC1=C(C(=O)O)N2C(=O)[C@@H](NC(=O)/C(=N\O)c3nc(N)sc3Cl)[C@H]2SC1 [Cmpd 39, (7R)-7-[(Z)-2-(2-amino-5-chlorothiazol-4-yl)-2-(hydroxyimino)acetamido]-3-(3-carboxamidomethylthiomethylpyrid-4-ylthio)-3-cephem-4-carboxylic acid]
MIC (E. coli ATCC 25992): 8 mg/L (≈ 13 µM)
MIC (E. faecalis ATCC 29212): 0.25 mg/L (≈ 0.406 µM)
MIC (E. faecalis VanB(Van^R)): 0.25 mg/L (≈ 0.406 µM)
MIC (E. faecium A491(Amp^R)): 32 mg/L (≈ 51.9 µM)
MIC (E. faecium ATCC 35667): 1 mg/L (≈ 1.62 µM)
MIC (E. faecium VanA(Van^R)): 2 mg/L (≈ 3.25 µM)
MIC (P. aeruginosa ATCC 27853): > 32 mg/L
MIC [1]: 4 mg/L (≈ 6.49 µM)
MIC [2]: 0.25 mg/L (≈ 0.406 µM)
MIC (S. aureus ATCC 29213): 0.25 mg/L (≈ 0.406 µM)
MIC [3]: 4 mg/L (≈ 6.49 µM)
MIC [4]: 0.5 mg/L (≈ 0.812 µM)
MIC [5]: 4 mg/L (≈ 6.49 µM)
MIC [6]: 8 mg/L (≈ 13 µM)
MIC [7]: 2 mg/L (≈ 3.25 µM)
responders at 0.3125 mg/kg ([8]; read-out: Survivors): 10%
responders at 0.625 mg/kg ([8]; read-out: Survivors): 30%
responders at 1.25 mg/kg [8]: 60%
responders at 2.5 mg/kg ([8]; read-out: Survivors): 60%
responders at 5 mg/kg ([8]; read-out: Survivors): 100%
ED50 [8]: 1.15 mg/kg
